Assays:
JAK2 kinase domain = target: T1, JAK2 kinase domain (Homo sapiens, UniProt O60674); test: Biochemical assay for inhibitors of JAK kinase activity (JAK2, 33P-γ-ATP/dowex resin); settings: JAK2 kinase domain 1 nM, 60 μM ATP
T1 construct: commercially available JAK2 kinase domain; purchased Invitrogen, Eugene, Oreg
From the text: Biochemical Assay for Inhibitors of JAK Kinase Activity
(§1) Specific JAK2, JAK1 or JAK3 peptide substrates are trans-phosphorylated by JAK kinases in the presence of ATP traced with 33P-γ-ATP. At the end of the phosphorylation reaction, the unreacted ATP, cold and radioactive, is captured by an excess of dowex ion exchange resin that eventually settles by gravity to the bottom of the reaction plate. The supernatant is subsequently withdrawn and transferred into a counting plate that is then evaluated by β-counting.
500 g of wet resin (SIGMA, custom prepared resin DOWEX 1×8 200-400 mesh, 2.5 Kg) are weighed out and diluted 2 to 1 in 150 mM sodium formate, pH 3.00. The resin is allowed to settle down overnight and then the supernatant is discarded. After three washes as above over a couple of days, the resin is allowed to settle and two volumes (with respect to the resin volume) of 150 mM sodium formate buffer are added.
Kinase buffer was composed of 50 mM HEPES pH 7.5 containing 10 mM MgCl2, 2.5 mM DTT, 10 μM Na3VO4 and 0.2 mg/mL BSA.
JAK2 Specific Assay Conditions
The JAK2 kinase assay was run with a final enzyme concentration of 1 nM, in the presence of 60 μM ATP, 3 nM 33P-γ-ATP and 64 μM of substrate BioDBn*306 (Aminoacid sequence: LPLDKDYYVVREPGQ—SEQ ID NO: 1). The peptidic substrate was purchased from American Peptide Company (Sunnyvale, Calif.).
(§2) For IC50 determination, test compounds are received as a 1 mM solution in 100% DMSO, distributed into 96 well plates: compounds are then plated into the first column of a microtiter plate (A1 to G1), 100 μL/well.
(§3) An automated station for serial dilutions (Biomek FX, Beckman) is used for producing 1:3 dilutions in 100% DMSO, from line A1 to A10, and for all the compounds in the column. Moreover, 4-5 copies of daughter plates are prepared by reformatting 5 μL of this first set of 100% DMSO dilution plates into 384 deep well-plates: one of these plates with the serial dilutions of test compounds will be thawed the day of the experiments, reconstituted at a 3× concentration with water and used in the IC50 determination assays. In a standard experiment, the highest concentration (3×) of all compounds is 30 μM, while the lowest one is 1.5 nM. Each 384 well-plate will contain at least one curve of the standard inhibitor staurosporine and reference wells (total enzyme activity vs. no enzymatic activity) for the Z′ and signal to background evaluation.
384-well plates, V bottom (test plates) are prepared with 5 μL of the compound dilution (3×) and then placed onto a PlateTrak 12 robotized station (Perkin Elmer; the robot has one 384-tip pipetting head for starting the assay plus one 96-tip head for dispensing the resin) together with one reservoir for the Enzyme mix (3×) and one for the ATP mix (3×). At the start of the run, the robot aspirates 5 μL of ATP mix, makes an air gap inside the tips (3 μl) and aspirates 5 μL of JAK2 mix. The following dispensation into the plates plus 3 cycles of mixing, done by the robot itself, starts the kinase reaction. At this point, the correct concentrations are restored for all the reagents. The robot incubates the plates for 60 minutes at room temperature, and then stops the reaction by pipetting 60 μL of dowex resin suspension into the reaction mix. In order to avoid tip clogging, wide bore tips are used to dispense the resin suspension. Three cycles of mixing are done immediately after the addition of the resin. Another mixing cycle is performed after all the plates are stopped, this time using normal tips: the plates are then allowed to rest for about one hour in order to allow resin sedimentation. At this point, 27 μL of the supernatant are transferred into 384-Optiplates (Perkin-Elmer), with 50 μL of Microscint 40 (Perkin-Elmer); after 5 min of orbital shaking the plates are read on a Perkin-Elmer Top Count radioactivity counter. […]

[1] = system: JAK2 dependent human megakaryoblastic leukemia cell line SET-2; test: Cell proliferation assay (CellTiter-Glo, 72 hours); format: cell-based; settings: Homo sapiens, SET-2 cells
Experimental: The JAK2 dependent human megakaryoblastic leukemia cell line SET-2 (DSMZ, Braunschweig GERMANY) and the JAK2 independent human chronic myelogenous leukaemia cell line K562 (ECACC, Wiltshire, UK) were cultured in RPMI-1640 medium-Glutamax (Gibco BRL, Gaithesburg, Md., USA), supplemented with 10% fetal bovine serum (FBS) at 37° C. and 5% CO2.
Cell Proliferation Assay:
Approximately 5×10^3 cells were plated into 384 microtiter plate wells in 50 μL of growth media with different concentrations of inhibitors. The cells were incubated at 37° C. and 5% CO2 for 72 hours, then the plates were processed using CellTiter-Glo assay (Promega, Madison, Wis., USA) following the manufacturer's instruction. Briefly 25 μL/well reagent solution is added to each well and after 5 minutes shaking the micro-plates are read by Envision luminometer (PerkinElmer, Waltham, Mass., USA).
Data are analyzed by Symix Assay Explorer software (Symix Technologies Inc.) that provides sigmoidal fitting algorithm of the 8 points dilutions curves for IC50 determination.

Lyn full length = target: T2, Lyn full length (Homo sapiens, UniProt P07948); test: Biochemical assay for inhibitors of Lyn (Src family) kinase activity; settings: Lyn full length 1 nM, 25 μM ATP
T2 construct: The assay has been performed using Lyn full length
T2 sequence (P07948 whole entry): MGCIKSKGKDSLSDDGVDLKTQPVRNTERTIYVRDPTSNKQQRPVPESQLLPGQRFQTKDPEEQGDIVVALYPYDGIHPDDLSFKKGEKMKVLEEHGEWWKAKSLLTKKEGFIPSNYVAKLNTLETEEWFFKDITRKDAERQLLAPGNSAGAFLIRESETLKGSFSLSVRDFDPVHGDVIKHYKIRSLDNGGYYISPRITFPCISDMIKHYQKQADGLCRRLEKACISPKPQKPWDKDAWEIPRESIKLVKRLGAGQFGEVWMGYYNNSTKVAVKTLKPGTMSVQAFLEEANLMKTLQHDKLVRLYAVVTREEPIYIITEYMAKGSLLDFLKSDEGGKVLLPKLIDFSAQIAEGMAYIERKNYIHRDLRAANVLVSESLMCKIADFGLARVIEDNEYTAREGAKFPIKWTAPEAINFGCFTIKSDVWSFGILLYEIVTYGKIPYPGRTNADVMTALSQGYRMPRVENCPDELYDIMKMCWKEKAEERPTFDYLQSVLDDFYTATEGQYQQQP
From the text: Biochemical Assay for Inhibitors of Lck and Lyn (Src Family) Kinases Activity
as §1, with “Lck and Lyn” for “JAK2, JAK1 or JAK3 peptide”, “Lck and Lyn” for “JAK”
Lyn Specific Assay Conditions
The assay has been performed using Lyn full length (accession number P07948 of UniProtKB/Swiss-Prot database).
Kinase buffer was composed of 50 mM HEPES pH 7.5 containing 3 mM MgCl2, 1 mM DTT, 3 μM Na3VO4, and 0.2 mg/mL BSA.
The Lyn kinase assay was run with a final enzyme concentration of 1 nM, in the presence of 25 μM ATP, 1.5 nM 33P-γ-ATP and 250 μM of substrate ABI 1 (Aminoacid sequence: EAIYAAPFAKKK—SEQ ID NO: 3). The peptidic substrate was purchased from American Peptide Company (Sunnyvale, Calif.).
as §2, §3
384-well plates, V bottom (test plates) are prepared with 5 μL of the compound dilution (3×) and then placed onto a PlateTrak 12 robotized station (Perkin Elmer; the robot has one 384-tip pipetting head for starting the assay plus one 96-tip head for dispensing the resin) together with one reservoir for the Enzyme mix (3×) and one for the ATP mix (3×). At the start of the run, the robot aspirates 5 μL of ATP mix, makes an air gap inside the tips (3 μl) and aspirates 5 μL of JAK2 mix. The following dispensation into the plates plus 3 cycles of mixing, done by the robot itself, starts the kinase reaction. At this point, the correct concentrations are restored for all the reagents. The robot incubates the plates for 60 minutes at room temperature, and then stops the reaction by pipetting 60 μL of dowex resin suspension into the reaction mix. In order to avoid tip clogging, wide bore tips are used to dispense the resin suspension. Three cycles of mixing are done immediately after the addition of the resin. Another mixing cycle is performed after all the plates are stopped, this time using normal tips: the plates are then allowed to rest for about one hour in order to allow resin sedimentation. At this point, 27 μL of the supernatant are transferred into 384-Optiplates (Perkin-Elmer), with 50 μL of Microscint 40 (Perkin-Elmer); after 5 min of orbital shaking the plates are read on a Perkin-Elmer Top Count radioactivity counter.
Data are analyzed by an internally customized version of the SW package “Assay Explorer” that provides sigmoidal fitting of the ten-dilutions curves for IC50 determination in the secondary assays/hit confirmation routines.

T1 sequence (O60674 849-1124 limits assumed): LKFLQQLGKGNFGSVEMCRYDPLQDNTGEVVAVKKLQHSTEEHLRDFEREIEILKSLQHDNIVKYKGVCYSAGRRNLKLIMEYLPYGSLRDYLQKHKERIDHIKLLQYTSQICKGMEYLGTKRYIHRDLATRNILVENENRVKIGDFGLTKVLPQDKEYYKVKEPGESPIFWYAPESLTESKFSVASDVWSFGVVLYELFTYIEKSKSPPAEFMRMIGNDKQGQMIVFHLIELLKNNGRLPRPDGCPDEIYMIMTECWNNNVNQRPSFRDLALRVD

SMILES	IC50 (JAK2 kinase domain) [nM]	IC50 [1] [nM]	IC50 (Lyn full length) [nM]
Cc1ccc(Cl)cc1-c1[nH]c(-c2nc(N)ncc2C#Cc2cccc(O)c2)cc1C(N)=O [compound 2, 5-{2-Amino-5-[(3-hydroxyphenyl)ethynyl]pyrimidin-4-yl}-2-(5-chloro-2-methylphenyl)-1H-pyrrole-3-carboxamide]	2	520	6
Cc1ccc(Cl)cc1-c1[nH]c(-c2nc(N)ncc2C#Cc2ccc(N3CCN(C)CC3)cc2)cc1C(N)=O [compound 11, 5-(2-Amino-5-{[4-(4-methylpiperazin-1-yl)phenyl]ethynyl}pyrimidin-4-yl)-2-(5-chloro-2-methylphenyl)-1H-pyrrole-3-carboxamide]	4	90	8
Cc1ccc(Cl)cc1-c1[nH]c(-c2nc(N)ncc2C#Cc2cccc(NC3CCOCC3)c2)cc1C(N)=O [compound 13, 5-(2-Amino-5-{[3-(tetrahydro-2H-pyran-4-ylamino)phenyl]ethynyl}pyrimidin-4-yl)-2-(5-chloro-2-methylphenyl)-1H-pyrrole-3-carboxamide]	4	–	8
Cc1ccc(Cl)cc1-c1[nH]c(-c2nc(N)ncc2C#Cc2cccc(NCCO)c2)cc1C(N)=O [compound 15, 5-[2-Amino-5-({3-[(2-hydroxyethyl)amino]phenyl}ethynyl)pyrimidin-4-yl]-2-(5-chloro-2-methylphenyl)-1H-pyrrole-3-carboxamide]	2	240	5
COc1ccc(NC2CCN(C)CC2)cc1C#Cc1cnc(N)nc1-c1cc(C(N)=O)c(-c2cc(Cl)ccc2C)[nH]1 [compound 22, 5-[2-Amino-5-({2-methoxy-5-[(1-methylpiperidin-4-yl)amino]phenyl}ethynyl)pyrimidin-4-yl]-2-(5-chloro-2-methylphenyl)-1H-pyrrole-3-carboxamide]	2	430	9
Cc1ccc(Cl)cc1-c1[nH]c(-c2nc(N)ncc2C#Cc2cccc(CN3CCN(C)CC3)c2)cc1C(N)=O [compound 24, 5-[2-Amino-5-({3-[(4-methylpiperazin-1-yl)methyl]phenyl}ethynyl)pyrimidin-4-yl]-2-(5-chloro-2-methylphenyl)-1H-pyrrole-3-carboxamide]	2	330	5
Cc1ccc(Cl)cc1-c1[nH]c(-c2nc(N)ncc2C#Cc2ccc(N3CCC(N4CCN(C)CC4)CC3)cc2)cc1C(N)=O [compound 25, 5-[2-Amino-5-({4-[4-(4-methylpiperazin-1-yl)piperidin-1-yl]phenyl}ethynyl)pyrimidin-4-yl]-2-(5-chloro-2-methylphenyl)-1H-pyrrole-3-carboxamide]	2	170	10

Now those with a lower IC50 (JAK2 kinase domain), led by results:

IC50 (JAK2 kinase domain) [nM]	IC50 [1] [nM]	IC50 (Lyn full length) [nM]	SMILES
1	150	1	Cc1ccc(Cl)cc1-c1[nH]c(-c2nc(N)ncc2C#Cc2cccc(N)c2)cc1C(N)=O [compound 4, 5-{2-amino-5-[(3-aminophenyl)ethynyl]pyrimidin-4-yl}-2-(5-chloro-2-methylphenyl)-1H-pyrrole-3-carboxamide]
1	240	3	Cc1ccc(Cl)cc1-c1[nH]c(-c2nc(N)ncc2C#Cc2ccccc2N)cc1C(N)=O [compound 6, 5-{2-Amino-5-[(2-aminophenyl)ethynyl]pyrimidin-4-yl}-2-(5-chloro-2-methylphenyl)-1H-pyrrole-3-carboxamide]
1	140	2	Cc1ccc(Cl)cc1-c1[nH]c(-c2nc(N)ncc2C#Cc2ccc(N)cc2)cc1C(N)=O [compound 8, 5-{2-Amino-5-[(4-aminophenyl)ethynyl]pyrimidin-4-yl}-2-(5-chloro-2-methylphenyl)-1H-pyrrole-3-carboxamide]
1	340	10	COc1ccc(N)cc1C#Cc1cnc(N)nc1-c1cc(C(N)=O)c(-c2cc(Cl)ccc2C)[nH]1 [compound 9, 5-{2-Amino-5-[(5-amino-2-methoxyphenyl)ethynyl]pyrimidin-4-yl}-2-(5-chloro-2-methylphenyl)-1H-pyrrole-3-carboxamide]
1	580	1	Cc1ccc(Cl)cc1-c1[nH]c(-c2nc(N)ncc2C#Cc2cccc(C(=O)N3CCN(C)CC3)c2)cc1C(N)=O [compound 27, 5-[2-Amino-5-({3-[(4-methylpiperazin-1-yl)carbonyl]phenyl}ethynyl)pyrimidin-4-yl]-2-(5-chloro-2-methylphenyl)-1H-pyrrole-3-carboxamide]
1	330	1	Cc1ccc(Cl)cc1-c1[nH]c(-c2nc(N)ncc2C#Cc2ccc(N3CCC(O)CC3)cc2)cc1C(N)=O [compound 28, 5-(2-Amino-5-{[4-(4-hydroxypiperidin-1-yl)phenyl]ethynyl}pyrimidin-4-yl)-2-(5-chloro-2-methylphenyl)-1H-pyrrole-3-carboxamide]

Source: patent US8912200B2, “Alkynyl substituted pyrimidinyl-pyrroles active as kinases inhibitors” (Nerviano Medical Sciences S.R.L., priority 2011, dated 2014)
